One assay has as its system Cryptococcus neoformans. Put plainly: Compound was tested for in vitro antifungal activity against Cryptococcus neoformans (CY1057).
The subject of a further assay is Aspergillus fumigatus. The assay is described as follows: Compound was tested in vitro for antifungal activity against Aspergillus fumigatus (CF1003). The class given is functional.
Another assay deals with Mus musculus. Put plainly: Compound was tested for antifungal activity by measuring systemic candidosis in mice on 7th day upon single peroral administration. The class given is functional. To be noted: po.
The subject of the next assay is Candida albicans. The assay is described as follows: Compound was tested for in vitro antifungal activity against Candida albicans (CY3003). It is filed as functional.

The values that follow come from ChEMBL document CHEMBL1130884, “Synthesis of novel antifungal agents (2)” (1998).

Each structure is given as a SMILES string. Converted amounts (≈) assume the structure as drawn.

A word on the IC80: it is the concentration needed for an effect of 80%. Lower therefore signals an effect from little substance. What is called ED50 is the midpoint of the dose-response relation. Read a high ED50 as weaker potency. On to `COC1[C@@H](Cn2cncn2)[C@H](COc2ccc(OC(C)(C)C)cc2)CC[C@@]1(C)CCN1CCOCC1` (stereo partly specified), for which the 80% effect concentration (IC80) in the assay with Cryptococcus neoformans stood at 0.02 mg/L (≈ 0.0399 µM); in the assay on Aspergillus fumigatus it was 158 mg/L (≈ 316 µM); in the assay on Candida albicans it was 0.03 mg/L (≈ 0.0599 µM). For the same compound, in the assay with Mus musculus, it took a dose of 50 mg/kg to reach the 50% effect level (ED50).

As for `CO/N=C1/[C@@H](Cn2cncn2)[C@H](COc2ccc(OC(C)(C)C)cc2)CC[C@@]1(C)CCn1ccnc1`, the concentration for an effect of 80% (IC80) in the assay with Cryptococcus neoformans was 13 mg/L (≈ 26.3 µM); with Aspergillus fumigatus it was 4.6 mg/L (≈ 9.3 µM); in the assay on Candida albicans it was 0.22 mg/L (≈ 0.445 µM). For the same compound, the ED50 with Mus musculus was more than 100 mg/kg.

`CO/N=C1/[C@@H](Cn2cncn2)[C@H](COc2ccc(OC(C)(C)C)cc2)CC[C@@]1(C)CCSc1ncccn1`: the IC80 with Cryptococcus neoformans came out at 1.1 mg/L (≈ 2.04 µM); in the assay with Aspergillus fumigatus, 2.6 mg/L (≈ 4.83 µM); in the assay on Candida albicans, 0.85 mg/L (≈ 1.58 µM). The 50% effective dose (ED50) in the assay on Mus musculus is more than 100 mg/kg.

For the compound `CO[C@@H]1[C@@H](Cn2cncn2)[C@H](COc2ccc(OC(C)(C)C)cc2)CC[C@@]1(C)CCSc1nccn1C`, the values for the IC80 in the assay with Cryptococcus neoformans, in the assay on Aspergillus fumigatus and in the assay on Candida albicans were 0.9 mg/L (≈ 1.71 µM), 36 mg/L (≈ 68.2 µM) and 0.5 mg/L (≈ 0.947 µM), respectively. For the same compound, it took a dose of 50 mg/kg to reach the 50% effect level in the assay with Mus musculus (ED50).

For `OC(Cn1cncn1)(Cn1cncn1)c1ccc(F)cc1F` [FLUCONAZOLE], the figures for the 80% effect concentration (IC80) in the assay with Cryptococcus neoformans, in the assay on Aspergillus fumigatus and in the assay with Candida albicans were 3.6 mg/L (≈ 11.8 µM), more than 200 mg/L and 1.4 mg/L (≈ 4.57 µM), respectively. For the same compound, it took a dose of 5.4 mg/kg to reach the 50% effect level in the assay with Mus musculus (ED50).

With `COC1[C@@H](Cn2cncn2)[C@H](COc2ccc(OC(C)(C)C)cc2)CC[C@@]1(C)CCn1ccnc1` (stereo partly specified), the IC80 in the assay on Cryptococcus neoformans was 0.24 mg/L (≈ 0.498 µM); in the assay on Aspergillus fumigatus it was 84 mg/L (≈ 174 µM); in the assay with Candida albicans, 0.08 mg/L (≈ 0.166 µM). The compound also yielded an ED50 in the assay on Mus musculus of 50 mg/kg.

With `COC1[C@@H](Cn2cncn2)[C@H](COc2ccc(OC(C)(C)C)cc2)CC[C@@]1(C)CCS(C)(=O)=O` (stereo partly specified), the IC80 in the assay on Cryptococcus neoformans was 0.38 mg/L (≈ 0.77 µM); in the assay with Aspergillus fumigatus, more than 200 mg/L; in the assay with Candida albicans, 0.7 mg/L (≈ 1.42 µM). The compound also came in with a 50% effective dose (ED50) in the assay with Mus musculus of 50 mg/kg.

With `CSCC[C@]1(C)CC[C@@H](COc2ccc(OC(C)(C)C)cc2)[C@H](Cn2cncn2)/C1=N/O`, the IC80 came to 21 mg/L (≈ 45.6 µM) with Cryptococcus neoformans, 0.45 mg/L (≈ 0.977 µM) in the assay with Aspergillus fumigatus and 0.18 mg/L (≈ 0.391 µM) in the assay on Candida albicans. For the same compound, in the assay on Mus musculus, the 50% effective dose (ED50) was more than 100 mg/kg.

With `COCC[C@]1(C)CC[C@@H](COc2ccc(OC(C)(C)C)cc2)[C@H](Cn2cncn2)/C1=N/OC`, the IC80 with Cryptococcus neoformans amounted to 1 mg/L (≈ 2.18 µM); with Aspergillus fumigatus, 0.6 mg/L (≈ 1.31 µM); with Candida albicans, 0.05 mg/L (≈ 0.109 µM). In addition, the 50% effective dose (ED50) in the assay with Mus musculus was more than 100 mg/kg.
